Results: patent EP3797781A1, “USE OF EC-7072 AND SYNERGIC COMPOSITIONS THEREOF IN TREATMENT OF CHRONIC LYMPHOCYTIC LEUKEMIA” (priority 2019, dated 2021)

Legend:
Type in all cases: cell-based, human
T cells (CD3^+CD56^-) = test: T cell numbers, viability and apoptosis in PBMCs (flow cytometry, DiOC6(3)/PI staining); conditions: idelalisib 10 µM, 48 hours; PBMCs from patients with CLL (n = 6 - 8); Figure 4G
Method: (§1) To evaluate absolute cell numbers, an equal volume of PKH26 reference microbeads (Sigma-Aldrich) was added to each sample after staining for immune subset identification. Microbeads (5x10^3) were acquired by flow cytometry and absolute numbers of each immune population within the sample were calculated. Normalized percentage values were calculated considering the control (DMSO)-treated cells as 100%.
(§2) Cell viability and apoptosis were evaluated by double-staining with the mitochondrial inner transmembrane potential (ΔΨm)-sensitive dye DiOC6(3) (3,3'-dihexyloxacarbocyanine iodide; Sigma-Aldrich) and the exclusion dye propidium iodide (PI; Immunostep), allowing identification of apoptotic [DiOC6(3)^low PI^-] and dead [PI^+] cells as per Proc. Natl. Acad. Sci. U.S.A. (2014) 111(8):3020-3025 and Methods Mol. Biol. (2016) 1419:1-16. Briefly, PBMCs were resuspended in culture medium containing 20 nM DiOC6(3) and incubated for 30 minutes at 37 °C. Then, PI (1 µg/mL) was added and cells were further incubated for 10 minutes at room temperature (RT). Cells were analyzed by flow cytometry considering DiOC6(3)^+PI^- cells as viable. In some experiments, apoptosis was evaluated by staining with Annexin V/PI. Thus, PBMCs were incubated in Annexin V binding buffer containing 5 µg/mL Annexin V-FITC (Biolegend) for 15 minutes at RT and PI (1 µg/mL) was subsequently added. Data were normalized to the untreated control as a percentage. Only samples with at least 60% of viable cells (DiOC6(3)^+; Annexin V^-) in the control (DMSO) condition were employed in this study.
(§3) The effect of EC-7072 toward healthy immune subsets, T lymphocytes and natural killer (NK) cells, which are chronically exposed to leukemia cells in the peripheral blood of patients with CLL was assessed by: • (i) incubating PBMCs isolated from patients with CLL (n = 10) following treatment with increasing concentrations of EC-7072 (0 - 400 nM) for 24 hours. Numbers of T cells (CD3^+CD56^-) (Figure 2A) and NK cells (CD3^-CD56^+) (Figure 2B) were evaluated by flow cytometry and normalized to their respective control (DMSO) condition for each individual patient to obtain percentage of relative number of T cells and NK cells, respectively; • (ii) incubating PBMCs isolated from patients with CLL (n = 6 - 10) following treatment with increasing concentrations of EC-7072 (0 - 400 nM) for 24 hours. Viability of immune subsets (leukemia cells, T cells and NK cells) was determined by cytofluorometric assessment of DiOC6(3)/PI staining and normalized to their respective control (DMSO) condition for each individual patient to obtain percentage of viable [DiOC6(3)^+] cells (Figures 2C and 2D); • (iii) incubating PBMCs isolated from patients with CLL (n = 11) following treatment with DMSO or EC-7072 (200 nM) for 24 hours. Numbers of CD4^+ cells (Figure 2E) and CD8^+ T cells (Figure 2F) were evaluated by flow cytometry and normalized to their respective control (DMSO) condition for each individual experiment; • (iv) incubating PBMCs isolated from healthy donors (n = 15) following treatment with EC-7072 (200 nM) for 24 hours. […]

NK cells (CD3^-CD56^+) = test: NK cell numbers, viability and apoptosis in PBMCs (flow cytometry, DiOC6(3)/PI staining); conditions: idelalisib 10 µM, 48 hours; PBMCs from patients with CLL (n = 6 - 8); Figure 4G
Method: as §1, §2, §3

primary CLL cells = test: Leukemia cell viability and apoptosis by DiOC6(3)/PI staining and flow cytometry; conditions: Z-VAD-fmk 0-100 µM pretreatment, then EC-7072 200 nM for 24 hours; n = 6
Method: as §2
The in vitro cytotoxic activity of EC-7072 against primary CLL cells was assessed by: • (i) incubating PBMCs isolated from patients with CLL (n = 13) following treatment with increasing concentrations of EC-7072 (0 - 400 nM) for 24 hours. Numbers of leukemia cells were evaluated by flow cytometry and normalized to their respective control (DMSO) condition for each individual patient to obtain percentage of leukemia cells (Figure 1A); • (ii) incubating PBMCs from patients with CLL (n = 10) with or without EC-7072 (100-400 nM) for 24 hours. Viability of leukemia cells was determined by cytofluorometric assessment of DiOC6(3)/PI staining and normalized to their respective control condition to obtain percentage viability (Figure 1B); • (iii) incubating PBMCs from patients with CLL (n = 10) with increasing concentrations of EC-7072 (0 - 400 nM) for 24 hours. Apoptosis of leukemia cells was determined by DiOC6(3)/PI staining and flow cytometry to obtain the mean percentages of apoptotic [DiOC6(3)^low PI^-] and dead [PI^+] cells (Figure 1C); • (iv) incubating PBMCs from patients with CLL (n = 10) with or without EC-7072 (200 nM) for 12 to 72 hours. Viability of leukemia cells was determined by DiOC6(3)/PI staining and normalized to their respective control condition to obtain percentage viability (Figure 1D); • (v) incubating PBMCs from patients with CLL (n = 24) with MTA (200 nM) or EC-7072 (200 nM) for 24 hours. Leukemia cell death was determined by DiOC6(3)/PI staining and flow cytometry to obtain the mean percentages of apoptotic [DiOC6(3)^low PI^-] and dead [PI^+] cells (Figure 1E); • (vi) incubating PBMCs from patients with CLL (n = 63) or healthy donors (n = 20) with or without EC-7072 (200 nM) for 24 hours. Viability of leukemia cells and healthy B cells was evaluated by DiOC6(3)/PI staining and normalized to their respective control condition to obtain percentage viability (Figure 1F); • (vii) incubating PBMCs from patients with CLL (n = 62) following treatment with EC-7072 (200 nM) for 24 hours and obtaining a cytogenetic profile for each patient. Viability of leukemia cells was evaluated by DiOC6(3)/PI staining and normalized to their respective control (DMSO) condition for each individual patient to obtain the percentage of viable [DiOC6(3)^+] cells (Figure 1G); • (viii) incubating PBMCs from patients with CLL (n = 59) following treatment with EC-7072 (200 nM) for 24 hours and determining mutational status of IgHV for each patient. Viability of leukemia cells was evaluated by DiOC6(3)/PI staining and normalized to their respective control (DMSO) condition for each individual patient to obtain the percentage of viable [DiOC6(3)^+] cells (Figure 1H). […]

active caspase-3 = test: Caspase-3 activity assay in leukemia cells (flow cytometry); conditions: Z-VAD-fmk 0-100 µM pretreatment, then EC-7072 200 nM for 24 hours; n = 6
Method: Intracellular levels of activated caspase-3 were measured by using CaspGLOW™ Fluorescein Active Caspase-3 Staining Kit (Invitrogen). In brief, EC-7072 (200 nM) or DMSO-treated PBMCs from patients with CLL were incubated with FITC-DEVD-fmk for 30 minutes at 37 °c and fluorescence was next analyzed by flow cytometry in leukemia cells. For some experiments, cells were pretreated for 2 hours with the indicated doses of the broad-spectrum caspase inhibitor Z-VAD-fmk.
The induction of caspase-dependent apoptosis on primary CLL cells by EC-7072 was assessed by: • (i) incubating PBMCs isolated from patients with CLL (n = 6) following treatment with increasing concentrations of EC-7072 (0 - 400 nM) for 24 hours. Apoptosis of leukemia cells was evaluated by cytofluorometric assessment of Annexin V/PI staining to obtain percentages of apoptotic [Annexin V^+ PI^-] and dead [PI^+] cells (Figure 3A); • (ii) incubating PBMCs and T cells isolated from patients with CLL (n = 3) following treatment with EC-7072 (200 nM) for 24 hours. T cell apoptosis was evaluated by cytofluorometric assessment of Annexin V/PI staining to obtain percentages of viable [Annexin V-], apoptotic [Annexin V^+ PI^-] and dead [PI^+] cells (Figure 3B); • (iii) incubating PBMCs isolated from patients with CLL (n = 6) following treatment with EC-7072 (0 - 400 nM) for 24 hours. […]

[1] = tested on: primary fibroblasts from healthy donors; test: Cell death of primary fibroblasts by PI staining; conditions: 200 nM, 24 hours; n = 4
Method: (§4) Effectiveness of EC-7072 against different B-cell malignancies was assessed by; • (i) incubating primary fibroblasts from healthy donors (n = 4) and HK-2 cells from healthy human adult kidney (n = 3) following treatment with MTA (200 nM) or EC-7072 (200 nM) for 24 hours. Cell death was evaluated by PI staining to obtain the percentages corresponding to the [PI^+] subset (Figure 5A) and the mean percentage of [PI^+] cells (Figure 5B); • (ii) treating MEC-1, GRANTA-519, Z-138, JVM-2, CA-46, Ramos, Raji and U266 cell lines (n = 3) following treatment with EC-7072 (500 nM) followed by incubation for 24 hours. Cell viability was assessed by DiOC6(3)/PI staining and normalized to control (DMSO) condition to obtain mean percentage of viable [DiOC6(3)^+] cells (Figure 5C).

HK-2 cells = test: Cell death of HK-2 cells by PI staining; conditions: 200 nM, 24 hours; n = 3
Method: as §4

CC[C@H](Nc1ncnc2[nH]cnc12)c1nc2cccc(F)c2c(=O)n1-c1ccccc1 [Idelalisib, reference compound]
viability of T cells (T cells (CD3^+CD56^-)): negligible effects | viability of NK cells (NK cells (CD3^-CD56^+)): negligible effects

Z-VAD-fmk [reference compound]
death of primary CLL cells induced by EC-7072 after Z-VAD-fmk pretreatment (primary CLL cells): completely abrogated the death | active caspase-3 levels on leukemia cells after Z-VAD-fmk pretreatment (active caspase-3): decrease of active caspase-3 levels

COC(C(=O)C(O)C(C)O)C1Cc2cc3cc(OC4CC(OC5CC(O)C(O)C(C)O5)C(O)C(C)O4)c(C)c(O)c3c(O)c2C(=O)C1OC1CC(OC2CC(OC3CC(C)(O)C(O)C(C)O3)C(O)C(C)O2)C(O)C(C)O1 (stereo not drawn) [MTA, Mithramycin A, reference compound]
viability of primary human fibroblasts (PI^+ cells) [1]: high toxicity | viability of HK-2 cells (PI^+ cells) (HK-2 cells): high toxicity
